We go through one molecule from patent US20040186166A1, “Cannabinoid analogs as peroxisome proliferator activated nuclear receptor gamma activators” (priority 2002, published 2004).

One experiment concerns the target T1, mPPARγ1 (Mus musculus, UniProt P37238).
T1 construct: made in house; host or cells: reticulocyte lysate in vitro transcription/translation (Promega) from pCMX-mPPARγ1
T1 sequence (P37238 1-475 isoform P37238-2): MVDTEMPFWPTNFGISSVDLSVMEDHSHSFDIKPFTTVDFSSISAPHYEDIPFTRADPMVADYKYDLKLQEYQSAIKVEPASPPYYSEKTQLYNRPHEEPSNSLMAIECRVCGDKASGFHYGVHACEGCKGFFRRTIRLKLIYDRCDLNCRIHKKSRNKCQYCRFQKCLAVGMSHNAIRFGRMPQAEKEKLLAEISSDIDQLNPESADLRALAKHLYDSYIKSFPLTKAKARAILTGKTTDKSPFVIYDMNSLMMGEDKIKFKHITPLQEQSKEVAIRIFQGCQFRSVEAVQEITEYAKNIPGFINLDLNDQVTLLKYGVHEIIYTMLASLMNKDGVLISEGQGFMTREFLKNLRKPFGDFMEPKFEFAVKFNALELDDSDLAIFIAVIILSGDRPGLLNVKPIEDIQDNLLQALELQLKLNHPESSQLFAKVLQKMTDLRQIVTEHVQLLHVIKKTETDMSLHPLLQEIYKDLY
Put plainly: Partial protease (trypsin) digestion assay, PPARγ. The experiment is classed as binding. Here is the method: Partial protease digestion was carried out as described by Leng et. al. (J Steroid Biochem Mol Biol 46:643-61, 1993). PPAR proteins were made by in vitro transcription/translation reactions in reticulocyte lysate according to the manufacture's instructions (Promega). AJA, GW347845, or vehicle alone was incubated with the 35S-labeled PPARs at room temperature for one hour before trypsin digestion. Reactions were stopped by boiling in SDS-containing sample buffer, and lysates were subjected to SDS-PAGE and autoradiography.
To determine if AJA can bind to PPARγ, in vitro translated ^35S-labeled mPPARγ1 was incubated with AJA or a carrier vehicle before trypsin digestion. To test if AJA binds to PPARs, partial proteinase digestion assays were conducted as described previously (Leng et al., J Steroid Biochem Mol Biol 46:643-61, 1993). […] Such conformational change can be detected by limited proteinase digestion based on alteration of the accessibility of proteolytic sites on the surface of the receptors.
The PPAR proteins were synthesized and labeled with ^35S-methionine in reticulocyte lysate and incubated with AJA, GW347845, or vehicle alone at room temperature for one hour before trypsin digestion. […] The proteolytic patterns of PPAR proteins were then analyzed by SDS-PAGE and autoradiography, and compared with vehicle-treated control samples. […]

Another experiment deals with T2, PPARγ ΔAF2 mutant (Mus musculus, UniProt P37238).
T2 construct: introduce a stop codon and a NheI restriction site after amino acid 489; expressed in transfected cells; host or cells: HEK293
T2 sequence (P37238 1-459 isoform P37238-2): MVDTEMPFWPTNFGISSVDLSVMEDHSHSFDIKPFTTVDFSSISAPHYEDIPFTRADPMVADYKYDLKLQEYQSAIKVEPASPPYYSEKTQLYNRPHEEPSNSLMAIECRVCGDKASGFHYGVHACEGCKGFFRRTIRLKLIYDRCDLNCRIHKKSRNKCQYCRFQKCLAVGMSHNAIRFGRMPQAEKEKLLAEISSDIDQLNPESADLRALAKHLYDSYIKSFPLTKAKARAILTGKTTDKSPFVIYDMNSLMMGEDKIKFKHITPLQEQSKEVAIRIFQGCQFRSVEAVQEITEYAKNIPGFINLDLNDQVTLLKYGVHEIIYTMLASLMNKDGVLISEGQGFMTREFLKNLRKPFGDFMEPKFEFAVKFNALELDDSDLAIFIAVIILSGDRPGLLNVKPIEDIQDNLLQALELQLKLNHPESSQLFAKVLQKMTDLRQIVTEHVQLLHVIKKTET
Put plainly: PPRE-Luc reporter assay, AF-2 helix-truncated PPARγ. Type of experiment: cell-based. The text has this:
The-pCMX-Gal4-mPPARγ1 was constructed by fusing the mPPARγ1 coding sequence to the yeast GAL4 DNA binding domain (amino acid 1-147) in the pCMX vector. The AF-2 helix-truncated mutant of mPPARγ1 (PPARγ ΔAF2) was generated by PCR amplification-to introduce a stop codon and a NheI restriction site after amino acid 489, and then-subcloned into the pCMX vector. The PPRE-TK-LUC, MH100-TK-LUC-and DR1-TK-LUC reporters have been described previously (Forman et al., Cell 83:803-812, 1995; Umesono et al., Cell 65:1255-1266, 1991).
For PPARγ activation assay, HEK293 cells were plated in 12-well cell culture plates and maintained in Dulbecco's modified Eagle's medium (DMEM) supplemented with 10% fetal bovine serum (FBS) at 37° C. under 5% CO2. Cells were changed to phenol red-free DMEM supplemented with 10% charcoal-stripped fetal bovine serum 3 hours before transfection by a standard calcium-phosphate precipitation method. Twelve hours after transfection, the cells were washed with phosphate-buffered saline (PBS) and fed again with fresh medium containing the indicated concentrations of compounds. After 36 hours, cells were harvested for β-galactosidase and luciferase activities as described previously (Li et al., Proc Natl Acad Sci USA 94:8479-84, 1997). The average normalized luciferase activity was determined via triplicate experiments. […]
In general terms: A reporter such as luciferase makes a cellular process visible.

The next experiment addresses COX-1 (Homo sapiens, UniProt P23219). Conditions: 0.25-25 μM, Zurier et al. 1998; cited from earlier work.

COX-1, sequence (P23219 24-599): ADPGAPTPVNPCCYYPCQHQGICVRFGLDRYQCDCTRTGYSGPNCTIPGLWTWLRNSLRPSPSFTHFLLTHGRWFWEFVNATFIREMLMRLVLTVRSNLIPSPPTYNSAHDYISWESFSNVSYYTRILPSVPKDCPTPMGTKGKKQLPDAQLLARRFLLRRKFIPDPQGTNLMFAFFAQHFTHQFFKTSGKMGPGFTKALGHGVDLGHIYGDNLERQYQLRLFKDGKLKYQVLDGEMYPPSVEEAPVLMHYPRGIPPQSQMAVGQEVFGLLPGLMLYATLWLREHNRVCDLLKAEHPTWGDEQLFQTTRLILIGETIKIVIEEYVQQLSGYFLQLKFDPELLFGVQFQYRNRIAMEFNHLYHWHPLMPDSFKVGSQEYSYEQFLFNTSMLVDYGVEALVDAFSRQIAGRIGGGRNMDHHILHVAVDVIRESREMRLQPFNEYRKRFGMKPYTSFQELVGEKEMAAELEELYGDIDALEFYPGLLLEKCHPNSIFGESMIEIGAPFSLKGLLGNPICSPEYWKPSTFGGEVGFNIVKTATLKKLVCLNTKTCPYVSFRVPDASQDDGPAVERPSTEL

On to `CCCCCCC(C)(C)c1cc(O)c2c(c1)OC(C)(C)[C@@H]1CC=C(C(=O)O)C[C@@H]21` [AJA, dimethylheptyl-THC-11-oic acid], for which the “trypsin-resistant PPARγ fragments (protection from trypsin digestion)” value at mPPARγ1 (20 μM AJA, 30 μg/ml trypsin, 30 or 60 min) is “Two prominent trypsin-resistant fragments of 30 and 24 kDa”. For the same molecule, on mPPARγ1 (2, 20 and 100 μM AJA), the “proteinase-resistant PPARγ fragments, concentration dependence” value is “proteinase-resistant PPARγ fragments were observed”. Also, at PPARγ ΔAF2 mutant, the “activation of PPRE-Luc reporter through PPARγ ΔAF2 mutant” value was “failed to activate expression of the reporter gene”. The “effect on COX-1 activity” value on COX-1 is “no effect”.
